The values that follow come from ChEMBL document CHEMBL6074626, “Recent advances in triazole synthesis via click chemistry and their pharmacological applications: A review” (Bioorg Med Chem Lett, 2024).

≈ marks a conversion by molar mass, not a printed value.

Assay [1] has as its target T1, Prostaglandin G/H synthase 1 (Ovis aries, UniProt P05979).
T1 sequence (P05979 whole entry): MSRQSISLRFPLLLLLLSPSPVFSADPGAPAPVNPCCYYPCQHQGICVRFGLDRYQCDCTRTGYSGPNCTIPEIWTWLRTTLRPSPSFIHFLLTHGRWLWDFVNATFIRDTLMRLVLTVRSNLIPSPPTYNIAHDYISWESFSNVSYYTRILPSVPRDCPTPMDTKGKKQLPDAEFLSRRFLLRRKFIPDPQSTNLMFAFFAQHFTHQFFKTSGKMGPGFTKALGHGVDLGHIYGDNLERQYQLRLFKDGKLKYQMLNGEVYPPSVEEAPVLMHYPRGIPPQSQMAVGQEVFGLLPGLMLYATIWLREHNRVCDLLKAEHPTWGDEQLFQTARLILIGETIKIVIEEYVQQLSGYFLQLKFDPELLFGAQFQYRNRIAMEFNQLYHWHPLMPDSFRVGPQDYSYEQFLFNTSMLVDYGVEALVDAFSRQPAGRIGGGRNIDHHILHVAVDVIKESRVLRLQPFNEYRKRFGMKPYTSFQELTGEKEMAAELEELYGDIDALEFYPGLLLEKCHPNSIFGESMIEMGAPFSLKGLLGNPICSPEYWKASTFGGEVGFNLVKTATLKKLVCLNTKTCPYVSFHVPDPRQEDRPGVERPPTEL
Briefly: Inhibition of ovine COX-1.

The target in assay [2] is T2, Prostaglandin G/H synthase 2 (Homo sapiens, UniProt P35354).
T2 sequence (P35354 whole entry): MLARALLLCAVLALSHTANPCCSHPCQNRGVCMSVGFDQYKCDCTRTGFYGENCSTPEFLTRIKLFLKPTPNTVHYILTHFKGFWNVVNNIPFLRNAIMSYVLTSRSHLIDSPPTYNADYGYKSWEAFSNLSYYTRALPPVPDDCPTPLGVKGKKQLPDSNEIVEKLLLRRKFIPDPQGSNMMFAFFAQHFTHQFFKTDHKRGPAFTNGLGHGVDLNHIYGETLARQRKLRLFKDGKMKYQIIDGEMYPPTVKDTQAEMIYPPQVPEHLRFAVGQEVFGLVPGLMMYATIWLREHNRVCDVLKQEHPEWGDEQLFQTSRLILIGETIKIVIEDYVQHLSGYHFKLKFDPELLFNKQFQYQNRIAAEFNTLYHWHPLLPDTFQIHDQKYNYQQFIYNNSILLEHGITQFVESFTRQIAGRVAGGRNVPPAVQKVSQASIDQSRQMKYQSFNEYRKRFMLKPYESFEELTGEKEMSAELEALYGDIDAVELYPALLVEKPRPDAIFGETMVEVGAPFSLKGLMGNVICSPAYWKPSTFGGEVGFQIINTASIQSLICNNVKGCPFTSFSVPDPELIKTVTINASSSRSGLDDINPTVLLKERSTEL
The assay is described as follows: Inhibition of human recombinant COX-2.

Another assay has as its system Bacillus subtilis. The assay is described as follows: microbe, parasite or virus in culture. The following applies: ATCC 6633, 20 h.
The test system of a further assay is Proteus vulgaris. The assay is described as follows: microbe, parasite or virus in culture. As to conditions: ATCC 13315, 24 h.
In the next assay the test system is Klebsiella pneumoniae. The assay is described as follows: microbe, parasite or virus in culture. As to conditions: ATCC 43816, 20 h.
For another assay, the system named is Bacillus cereus. The assay is described as follows: microbe, parasite or virus in culture. The following applies: ATCC 14579.
The test system of another assay is Escherichia coli. The assay is described as follows: microbe, parasite or virus in culture. As to conditions: ATCC 8739, 20 h.
Another assay deals with Staphylococcus aureus. The assay is described as follows: microbe, parasite or virus in culture. As to conditions: NCTC 13616, 20 h.

Description for Bacillus cereus: Antibacterial activity against Bacillus cereus ATCC 14579 assessed as reduction in bacterial growth incubated for 18 to 24 hrs by broth microdilution method
Description for Bacillus subtilis: Antibacterial activity against Bacillus subtilis ATCC 6633 assessed as bacterial growth inhibition measured for 20 hrs by micro-broth dilution method
Description for Escherichia coli: Antimicrobial activity against Escherichia coli ATCC 8739 assessed as reduction in bacterial growth incubated for 20 hrs by broth microdilution analysis
Description for Klebsiella pneumoniae: Antimicrobial activity against Klebsiella pneumoniae ATCC 43816 assessed as reduction in bacterial growth incubated for 20 hrs by broth microdilution analysis
Description for Proteus vulgaris: Antimicrobial activity against Proteus vulgaris ATCC 13315 assessed as microbial growth inhibition incubated for 24 hrs by broth microdilution method
Description for Staphylococcus aureus: Antibacterial activity against methicillin-resistant Staphylococcus aureus NCTC 13616 assessed as reduction in bacterial growth incubated for 20 hrs by broth micro-dilution method

For orientation: IC50 means the concentration that gives 50% inhibition. In turn, `COc1ccc(/C=C/C(=O)c2cc(-n3cc(CN4C(=O)C(=O)c5ccccc54)nn3)ccc2O)cc1` gave an IC50 in assay [1] of 7.4 µM.
For `O=C(/C=C/c1ccc(Br)cc1)c1cc(-n2cc(CN3C(=O)C(=O)c4ccccc43)nn2)ccc1O`, the IC50 in assay [2] is 0.037 µM; in assay [1], 7.4 µM.
Consider `O=C(/C=C/c1ccc(O)cc1)c1cc(-n2cc(CN3C(=O)C(=O)c4ccccc43)nn2)ccc1O`, for which the IC50 in assay [2] came out at 0.037 µM; in assay [1], 7.4 µM.
On the same counts, the results for `O=C(/C=C/c1ccc(Cl)cc1)c1cc(-n2cc(CN3C(=O)C(=O)c4ccccc43)nn2)ccc1O` are 0.037 µM and 7.4 µM.
On the same counts, the results for `CN(C)C(=O)c1ccc(/C=C/C(=O)c2cc(-n3cc(-c4ccccc4)nn3)ccc2O)cc1` are 0.037 µM and 7.4 µM.
`O=C(/C=C/c1ccc(Br)cc1)c1cc(-n2cc(-c3ccccc3)nn2)ccc1O`: the IC50 came out at 0.037 µM in assay [2] and 7.4 µM in assay [1].
For `Cc1ccc(/C=C/C(=O)c2cc(-n3cc(CN4C(=O)C(=O)c5ccccc54)nn3)ccc2O)cc1`, in that order: 0.037 µM and 7.4 µM.
Consider `O=C(/C=C/c1ccccc1)c1cc(-n2cc(-c3ccccc3)nn2)ccc1O`, for which the IC50 in assay [2] was determined as 0.037 µM; in assay [1], 7.4 µM.
As to `O=C(/C=C/C=C/c1ccccc1)c1cc(-n2cc(-c3ccccc3)nn2)ccc1O`, the IC50 in assay [2] amounted to 0.037 µM; in assay [1], 7.4 µM.
On the same counts, the results for `Cc1ccc(/C=C/C(=O)c2cc(-n3cc(-c4ccccc4)nn3)ccc2O)cc1` are 0.037 µM and 7.4 µM.
For `O=C(/C=C/c1ccc(O)cc1)c1cc(-n2cc(-c3ccccc3)nn2)ccc1O`, in that order: 0.037 µM and 7.4 µM.
For the compound `COc1ccc(/C=C/C(=O)c2cc(-n3cc(-c4ccccc4)nn3)ccc2O)cc1`, the IC50 came out at 0.037 µM in assay [2] and 7.4 µM in assay [1].
For `COc1cc(/C=C/C(=O)c2cc(-n3cc(-c4ccccc4)nn3)ccc2O)cc(OC)c1OC`, in that order: 0.037 µM and 7.4 µM.
Turning to `COc1ccc(/C=C/C(=O)c2cc(-n3cc(CN4C(=O)C(=O)c5ccccc54)nn3)ccc2O)cc1OC`, the IC50 came to 0.037 µM in assay [2] and 7.4 µM in assay [1].
For `COc1cc(/C=C/C(=O)c2cc(-n3cc(CN4C(=O)C(=O)c5ccccc54)nn3)ccc2O)cc(OC)c1OC`, in that order: 0.037 µM and 7.4 µM.
For the compound `O=C(/C=C/c1ccccc1)c1cc(-n2cc(CN3C(=O)C(=O)c4ccccc43)nn2)ccc1O`, the values for the IC50 in assay [2] and in assay [1] were 0.037 µM and 7.4 µM, respectively.
For the compound `CN(C)C(=O)c1ccc(/C=C/C(=O)c2cc(-n3cc(CN4C(=O)C(=O)c5ccccc54)nn3)ccc2O)cc1`, the IC50 in assay [2] turned out to be 0.037 µM; in assay [1] it was 7.4 µM.
Consider `CCCCCCCCn1cc(COc2ccc(C(=O)C(C)c3ccc(CC(C)C)cc3)c(O)c2)nn1` (stereo unspecified), for which the MIC against Bacillus subtilis, in the assay with Proteus vulgaris, in the assay on Klebsiella pneumoniae, with Bacillus cereus, with Escherichia coli and in the assay with Staphylococcus aureus was 12 µg/mL (≈ 24.4 µM) each time.
On to `O=C(/C=C/C=C/c1ccccc1)c1cc(-n2cc(CN3C(=O)C(=O)c4ccccc43)nn2)ccc1O`, for which the half-maximal inhibitory concentration (IC50) in assay [2] was found to be 0.037 µM; in assay [1], 7.4 µM.
With `CCCCCCn1cc(COc2ccc(C(=O)C(C)c3ccc(CC(C)C)cc3)c(O)c2)nn1` (stereo unspecified), the MIC in the assay on Bacillus subtilis, against Proteus vulgaris, in the assay with Klebsiella pneumoniae, against Bacillus cereus, in the assay with Escherichia coli and in the assay with Staphylococcus aureus was 12 µg/mL (≈ 25.9 µM) each time.
As for `COc1ccc(/C=C/C(=O)c2cc(-n3cc(-c4ccccc4)nn3)ccc2O)cc1OC`, the IC50 in assay [2] is 0.037 µM; in assay [1], 7.4 µM.
On the same counts, the results for `O=C(/C=C/c1ccc(Cl)cc1)c1cc(-n2cc(-c3ccccc3)nn2)ccc1O` are 0.037 µM and 7.4 µM.
